Data: the kinase profiling compilation of Christmann-Franck et al. (2016)

Columns and labels:
Assay in all cases: radiometric filter-binding kinase assay, Kinase HotSpot
Conditions in all cases: compound 0.5 µM; ATP 10 µM
PTK6 (human) = PTK6 (human) (UniProt Q13882)
TAOK3 (human) = TAOK3 (human) (UniProt Q9H2K8)
CSNK2A1 (human) = CSNK2A1 (human) (UniProt P68400)
RAF1 (human) = RAF1 (human) (UniProt P04049)
EPHA2 (human) = EPHA2 (human) (UniProt P29317)
GRK4 (human) = GRK4 (human) (UniProt P32298)
EPHA3 (human) = EPHA3 (human) (UniProt P29320)
INSR (human) = INSR (human) (UniProt P06213)
TTK (human) = TTK (human) (UniProt P33981)
HIPK1 (human) = HIPK1 (human) (UniProt Q86Z02)
MARK2 (human) = MARK2 (human) (UniProt Q7KZI7)
PRKCG (human) = PRKCG (human) (UniProt P05129)
MAPK1 (human) = MAPK1 (human) (UniProt P28482)
PAK4 (human) = PAK4 (human) (UniProt O96013)
FGFR2 (human) = FGFR2 (human) (UniProt P21802)
PAK1 (human) = PAK1 (human) (UniProt Q13153)
SRPK2 (human) = SRPK2 (human) (UniProt P78362)
ROCK1 (human) = ROCK1 (human) (UniProt Q13464)
RPS6KA1 KD1 KD2 (human) = RPS6KA1 KD1 KD2 (human) (UniProt Q15418)
NEK2 (human) = NEK2 (human) (UniProt P51955)
MYLK2 (human) = MYLK2 (human) (UniProt Q9H1R3)
MKNK2 (human) = MKNK2 (human) (UniProt Q9HBH9)
NEK9 (human) = NEK9 (human) (UniProt Q8TD19)
CAMKK1 (human) = CAMKK1 (human) (UniProt Q8N5S9)
MERTK (human) = MERTK (human) (UniProt Q12866)
STK17A (human) = STK17A (human) (UniProt Q9UEE5)
EPHA8 (human) = EPHA8 (human) (UniProt P29322)
DYRK3 (human) = DYRK3 (human) (UniProt O43781)
MYLK (human) = MYLK (human) (UniProt Q15746)
CAMK2A (human) = CAMK2A (human) (UniProt Q9UQM7)
NLK (human) = NLK (human) (UniProt Q9UBE8)
MAPKAPK2 (human) = MAPKAPK2 (human) (UniProt P49137)
ADRBK2 (human) = ADRBK2 (human) (UniProt P35626)
RET (human) = RET (human) (UniProt P07949)
PIM3 (human) = PIM3 (human) (UniProt Q86V86)
INSRR (human) = INSRR (human) (UniProt P14616)
CDK1 CCNB1 (human) = CDK1 CCNB1 (human) (UniProt P06493+P14635)
PAK2 (human) = PAK2 (human) (UniProt Q13177)
SGK3 (human) = SGK3 (human) (UniProt Q96BR1)
ULK2 (human) = ULK2 (human) (UniProt Q8IYT8)
NUAK2 (human) = NUAK2 (human) (UniProt Q9H093)
CAMK4 (human) = CAMK4 (human) (UniProt Q16566)

Sequence of ADRBK2 (human) (P35626 whole entry, looked up): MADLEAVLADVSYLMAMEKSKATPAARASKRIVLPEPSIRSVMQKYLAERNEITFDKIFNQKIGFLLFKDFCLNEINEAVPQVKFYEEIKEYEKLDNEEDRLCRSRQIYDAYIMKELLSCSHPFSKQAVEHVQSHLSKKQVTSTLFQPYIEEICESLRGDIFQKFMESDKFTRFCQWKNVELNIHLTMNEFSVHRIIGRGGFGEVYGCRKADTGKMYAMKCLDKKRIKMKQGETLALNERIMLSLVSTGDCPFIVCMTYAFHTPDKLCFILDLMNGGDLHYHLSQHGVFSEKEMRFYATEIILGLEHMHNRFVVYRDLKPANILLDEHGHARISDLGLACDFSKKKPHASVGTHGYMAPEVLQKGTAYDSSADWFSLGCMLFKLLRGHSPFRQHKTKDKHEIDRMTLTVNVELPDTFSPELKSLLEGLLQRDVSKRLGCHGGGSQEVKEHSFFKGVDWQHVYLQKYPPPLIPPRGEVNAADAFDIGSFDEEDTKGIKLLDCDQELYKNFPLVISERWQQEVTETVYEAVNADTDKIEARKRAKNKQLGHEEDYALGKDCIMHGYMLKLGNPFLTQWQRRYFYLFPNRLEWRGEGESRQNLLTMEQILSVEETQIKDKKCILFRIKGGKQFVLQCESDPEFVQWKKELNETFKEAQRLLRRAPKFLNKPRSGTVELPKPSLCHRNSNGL
Sequence of CAMKK1 (human) (Q8N5S9 whole entry, looked up): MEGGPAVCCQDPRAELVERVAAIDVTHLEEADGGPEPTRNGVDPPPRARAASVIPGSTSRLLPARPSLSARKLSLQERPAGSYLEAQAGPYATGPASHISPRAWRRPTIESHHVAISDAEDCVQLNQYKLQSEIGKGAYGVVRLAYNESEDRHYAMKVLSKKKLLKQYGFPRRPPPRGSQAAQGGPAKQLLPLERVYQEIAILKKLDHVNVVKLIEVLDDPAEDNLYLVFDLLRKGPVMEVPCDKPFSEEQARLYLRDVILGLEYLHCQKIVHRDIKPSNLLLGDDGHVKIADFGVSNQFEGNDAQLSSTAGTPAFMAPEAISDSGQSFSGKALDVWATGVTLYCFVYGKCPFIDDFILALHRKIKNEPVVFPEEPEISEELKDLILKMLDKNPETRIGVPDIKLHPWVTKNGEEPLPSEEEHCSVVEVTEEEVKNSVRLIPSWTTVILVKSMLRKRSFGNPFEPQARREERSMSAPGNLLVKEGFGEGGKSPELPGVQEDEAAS
Sequence of EPHA2 (human) (P29317 whole entry, looked up): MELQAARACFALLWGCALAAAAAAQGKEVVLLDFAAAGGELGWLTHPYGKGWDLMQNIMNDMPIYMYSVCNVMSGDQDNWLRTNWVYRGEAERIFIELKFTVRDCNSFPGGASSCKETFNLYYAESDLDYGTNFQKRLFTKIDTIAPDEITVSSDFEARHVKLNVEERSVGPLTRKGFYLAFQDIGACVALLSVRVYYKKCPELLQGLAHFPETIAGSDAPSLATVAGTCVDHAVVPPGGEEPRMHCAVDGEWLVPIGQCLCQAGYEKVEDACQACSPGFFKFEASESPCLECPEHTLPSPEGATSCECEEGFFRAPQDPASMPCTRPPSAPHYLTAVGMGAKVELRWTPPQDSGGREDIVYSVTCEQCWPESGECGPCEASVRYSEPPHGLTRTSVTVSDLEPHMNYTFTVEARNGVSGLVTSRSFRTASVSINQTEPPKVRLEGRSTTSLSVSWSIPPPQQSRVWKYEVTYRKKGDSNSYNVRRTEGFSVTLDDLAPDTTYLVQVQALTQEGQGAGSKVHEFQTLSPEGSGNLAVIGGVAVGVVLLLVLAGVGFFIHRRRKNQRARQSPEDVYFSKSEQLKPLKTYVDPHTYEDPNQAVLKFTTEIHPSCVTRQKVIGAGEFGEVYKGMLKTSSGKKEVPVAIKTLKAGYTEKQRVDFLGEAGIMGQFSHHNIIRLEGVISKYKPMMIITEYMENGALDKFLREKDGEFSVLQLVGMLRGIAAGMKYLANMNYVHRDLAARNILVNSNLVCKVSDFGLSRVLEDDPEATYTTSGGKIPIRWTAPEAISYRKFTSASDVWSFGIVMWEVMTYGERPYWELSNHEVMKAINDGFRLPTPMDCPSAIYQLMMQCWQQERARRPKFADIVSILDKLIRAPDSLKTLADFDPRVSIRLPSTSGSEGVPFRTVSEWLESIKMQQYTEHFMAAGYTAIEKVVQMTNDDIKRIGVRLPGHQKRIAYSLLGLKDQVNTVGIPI
Sequence of MAPK1 (human) (P28482 whole entry, looked up): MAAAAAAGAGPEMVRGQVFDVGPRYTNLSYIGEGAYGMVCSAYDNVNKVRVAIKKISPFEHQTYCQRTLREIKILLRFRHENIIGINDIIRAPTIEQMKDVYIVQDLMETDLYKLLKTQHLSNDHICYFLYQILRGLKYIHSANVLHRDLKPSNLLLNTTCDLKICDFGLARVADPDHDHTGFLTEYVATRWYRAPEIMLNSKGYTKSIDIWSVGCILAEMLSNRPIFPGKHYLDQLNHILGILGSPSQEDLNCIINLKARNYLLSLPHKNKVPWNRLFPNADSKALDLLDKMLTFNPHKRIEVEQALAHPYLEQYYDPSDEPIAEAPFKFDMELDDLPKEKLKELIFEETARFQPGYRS
Sequence of INSRR (human) (P14616 whole entry, looked up): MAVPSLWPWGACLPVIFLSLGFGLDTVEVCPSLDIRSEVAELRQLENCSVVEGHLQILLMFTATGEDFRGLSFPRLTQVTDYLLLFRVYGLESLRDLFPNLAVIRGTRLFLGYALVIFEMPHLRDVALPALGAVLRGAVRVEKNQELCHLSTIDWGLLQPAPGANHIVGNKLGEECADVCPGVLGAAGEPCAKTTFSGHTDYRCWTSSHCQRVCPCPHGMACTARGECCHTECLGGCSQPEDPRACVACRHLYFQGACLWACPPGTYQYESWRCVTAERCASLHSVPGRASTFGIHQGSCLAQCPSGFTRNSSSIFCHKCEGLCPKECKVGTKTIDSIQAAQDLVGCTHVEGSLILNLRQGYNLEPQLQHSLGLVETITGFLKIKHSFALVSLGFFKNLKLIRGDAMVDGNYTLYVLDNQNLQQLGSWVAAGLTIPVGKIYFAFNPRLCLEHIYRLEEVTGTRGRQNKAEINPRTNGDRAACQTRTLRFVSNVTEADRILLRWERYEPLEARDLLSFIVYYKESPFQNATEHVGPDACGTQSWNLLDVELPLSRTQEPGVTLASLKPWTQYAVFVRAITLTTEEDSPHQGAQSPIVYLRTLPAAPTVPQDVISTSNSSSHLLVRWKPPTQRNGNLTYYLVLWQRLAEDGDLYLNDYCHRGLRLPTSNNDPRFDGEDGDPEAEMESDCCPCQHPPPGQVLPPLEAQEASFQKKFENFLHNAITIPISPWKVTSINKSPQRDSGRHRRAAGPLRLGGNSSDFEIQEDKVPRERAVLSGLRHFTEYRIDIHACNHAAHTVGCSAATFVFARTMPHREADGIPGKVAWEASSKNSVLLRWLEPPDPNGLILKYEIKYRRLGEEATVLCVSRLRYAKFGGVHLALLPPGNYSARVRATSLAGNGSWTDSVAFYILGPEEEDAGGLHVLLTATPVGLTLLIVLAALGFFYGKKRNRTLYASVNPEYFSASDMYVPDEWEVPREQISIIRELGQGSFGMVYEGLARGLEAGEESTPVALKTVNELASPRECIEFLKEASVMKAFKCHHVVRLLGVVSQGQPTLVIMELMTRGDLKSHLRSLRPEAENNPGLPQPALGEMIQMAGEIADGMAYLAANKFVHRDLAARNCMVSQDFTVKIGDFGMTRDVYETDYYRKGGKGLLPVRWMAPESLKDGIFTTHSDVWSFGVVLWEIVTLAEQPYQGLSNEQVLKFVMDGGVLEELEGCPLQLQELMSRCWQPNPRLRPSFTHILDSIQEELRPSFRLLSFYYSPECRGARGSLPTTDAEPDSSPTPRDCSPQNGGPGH
Sequence of GRK4 (human) (P32298 whole entry, looked up): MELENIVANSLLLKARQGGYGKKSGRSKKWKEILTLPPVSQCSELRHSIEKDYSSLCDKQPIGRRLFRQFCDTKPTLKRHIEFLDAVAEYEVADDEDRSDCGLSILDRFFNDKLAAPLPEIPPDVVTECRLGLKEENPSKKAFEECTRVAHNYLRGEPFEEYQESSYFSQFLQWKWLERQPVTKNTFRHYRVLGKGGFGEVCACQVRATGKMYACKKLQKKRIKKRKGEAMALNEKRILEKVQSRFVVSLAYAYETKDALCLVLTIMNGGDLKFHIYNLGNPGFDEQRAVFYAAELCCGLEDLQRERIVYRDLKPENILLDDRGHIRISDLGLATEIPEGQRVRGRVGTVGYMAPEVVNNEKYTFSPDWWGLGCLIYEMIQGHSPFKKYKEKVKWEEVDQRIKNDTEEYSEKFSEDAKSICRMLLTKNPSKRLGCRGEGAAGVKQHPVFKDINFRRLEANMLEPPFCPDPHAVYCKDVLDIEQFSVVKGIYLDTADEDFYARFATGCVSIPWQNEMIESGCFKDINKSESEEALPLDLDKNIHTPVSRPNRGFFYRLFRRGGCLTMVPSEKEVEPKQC
Sequence of NUAK2 (human) (Q9H093 whole entry, looked up): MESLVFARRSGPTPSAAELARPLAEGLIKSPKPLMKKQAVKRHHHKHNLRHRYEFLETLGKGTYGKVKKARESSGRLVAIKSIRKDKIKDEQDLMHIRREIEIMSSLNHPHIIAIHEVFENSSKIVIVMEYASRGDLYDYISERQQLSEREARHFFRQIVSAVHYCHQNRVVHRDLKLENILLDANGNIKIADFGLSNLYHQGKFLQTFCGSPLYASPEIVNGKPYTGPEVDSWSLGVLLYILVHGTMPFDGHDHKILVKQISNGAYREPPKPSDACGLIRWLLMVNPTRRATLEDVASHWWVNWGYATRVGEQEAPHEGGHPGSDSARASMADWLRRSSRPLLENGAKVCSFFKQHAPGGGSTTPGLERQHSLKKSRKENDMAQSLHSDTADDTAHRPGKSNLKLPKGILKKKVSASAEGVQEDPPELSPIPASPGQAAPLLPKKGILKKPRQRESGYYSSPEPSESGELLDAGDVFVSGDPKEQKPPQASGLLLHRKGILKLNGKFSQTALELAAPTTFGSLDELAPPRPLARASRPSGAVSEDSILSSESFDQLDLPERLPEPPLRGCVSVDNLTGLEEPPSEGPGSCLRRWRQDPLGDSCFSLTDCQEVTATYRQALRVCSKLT

Q: With `CC(=O)O/N=C1\C(=C2\C(=O)Nc3cc(Br)ccc32)Nc2ccccc21` as the molecule, how does the residual activity (PTK6 (human)) read?
A: 91.2%

Q: What about the residual activity (TAOK3 (human)) of the same molecule?
A: 72.4%

Q: And the residual activity (CSNK2A1 (human))?
A: 81.8%

Q: And the residual activity (RAF1 (human))?
A: 100%

Q: What about the residual activity (EPHA2 (human)) of the same molecule?
A: 95.8%

Q: What about the residual activity (GRK4 (human)) of the same molecule?
A: 97.6%

Q: What about the residual activity (EPHA3 (human)) of the same molecule?
A: 88.2%

Q: And the residual activity (INSR (human))?
A: 94.8%

Q: What about the residual activity (TTK (human)) of the same molecule?
A: 93.9%

Q: What about the residual activity (HIPK1 (human)) of the same molecule?
A: 83%

Q: And the residual activity (MARK2 (human))?
A: 74.9%

Q: And the residual activity (PRKCG (human))?
A: 103%

Q: What about the residual activity (MAPK1 (human)) of the same molecule?
A: 87.9%

Q: And the residual activity (PAK4 (human))?
A: 92.7%

Q: What about the residual activity (FGFR2 (human)) of the same molecule?
A: 85.8%

Q: What about the residual activity (PAK1 (human)) of the same molecule?
A: 93.6%

Q: And the residual activity (SRPK2 (human))?
A: 96.6%

Q: What about the residual activity (ROCK1 (human)) of the same molecule?
A: 94.6%

Q: What about the residual activity (RPS6KA1 KD1 KD2 (human)) of the same molecule?
A: 69%

Q: What about the residual activity (NEK2 (human)) of the same molecule?
A: 73.9%

Q: And the residual activity (MYLK2 (human))?
A: 55%

Q: And the residual activity (MKNK2 (human))?
A: 66.9%

Q: And the residual activity (NEK9 (human))?
A: 86.7%

Q: And the residual activity (CAMKK1 (human))?
A: 72.7%

Q: What about the residual activity (MERTK (human)) of the same molecule?
A: 77%

Q: And the residual activity (STK17A (human))?
A: 72.7%

Q: And the residual activity (EPHA8 (human))?
A: 96.3%

Q: And the residual activity (DYRK3 (human))?
A: 91.3%

Q: What about the residual activity (MYLK (human)) of the same molecule?
A: 74.2%

Q: And the residual activity (CAMK2A (human))?
A: 89.2%

Q: What about the residual activity (NLK (human)) of the same molecule?
A: 106%

Q: And the residual activity (MAPKAPK2 (human))?
A: 109%

Q: What about the residual activity (ADRBK2 (human)) of the same molecule?
A: 95.7%

Q: And the residual activity (RET (human))?
A: 6.58%

Q: What about the residual activity (PIM3 (human)) of the same molecule?
A: 54.2%

Q: What about the residual activity (INSRR (human)) of the same molecule?
A: 96.7%

Q: What about the residual activity (CDK1 CCNB1 (human)) of the same molecule?
A: 79.3%

Q: And the residual activity (PAK2 (human))?
A: 103%

Q: What about the residual activity (SGK3 (human)) of the same molecule?
A: 100%

Q: What about the residual activity (ULK2 (human)) of the same molecule?
A: 92.2%

Q: And the residual activity (NUAK2 (human))?
A: 85.2%

Q: What about the residual activity (CAMK4 (human)) of the same molecule?
A: 86.1%

Q: For `CC(C)c1nn(-c2c(Cl)cccc2Cl)c2nc(Cc3ccc(OCCO)cc3)nc(O)c12`, which residual activity (PTK6 (human)) is on record?
A: 87.1%

Q: And the residual activity (TAOK3 (human))?
A: 91.3%

Q: What about the residual activity (CSNK2A1 (human)) of the same molecule?
A: 88.8%

Q: And the residual activity (RAF1 (human))?
A: 95.8%

Q: What about the residual activity (EPHA2 (human)) of the same molecule?
A: 100%

Q: And the residual activity (GRK4 (human))?
A: 97.3%

Q: What about the residual activity (EPHA3 (human)) of the same molecule?
A: 86.2%

Q: And the residual activity (INSR (human))?
A: 100%

Q: And the residual activity (TTK (human))?
A: 101%

Q: What about the residual activity (HIPK1 (human)) of the same molecule?
A: 102%

Q: What about the residual activity (MARK2 (human)) of the same molecule?
A: 88%

Q: What about the residual activity (PRKCG (human)) of the same molecule?
A: 81.1%

Q: What about the residual activity (MAPK1 (human)) of the same molecule?
A: 91.7%

Q: And the residual activity (PAK4 (human))?
A: 106%

Q: And the residual activity (FGFR2 (human))?
A: 97.5%

Q: And the residual activity (PAK1 (human))?
A: 89.7%

Q: What about the residual activity (SRPK2 (human)) of the same molecule?
A: 89.2%

Q: What about the residual activity (ROCK1 (human)) of the same molecule?
A: 101%

Q: And the residual activity (RPS6KA1 KD1 KD2 (human))?
A: 91.3%

Q: And the residual activity (NEK2 (human))?
A: 97.7%

Q: What about the residual activity (MYLK2 (human)) of the same molecule?
A: 96.6%

Q: And the residual activity (MKNK2 (human))?
A: 88.9%

Q: What about the residual activity (NEK9 (human)) of the same molecule?
A: 97.3%

Q: What about the residual activity (CAMKK1 (human)) of the same molecule?
A: 100%

Q: What about the residual activity (MERTK (human)) of the same molecule?
A: 96.1%

Q: What about the residual activity (STK17A (human)) of the same molecule?
A: 98.3%

Q: What about the residual activity (EPHA8 (human)) of the same molecule?
A: 102%

Q: And the residual activity (DYRK3 (human))?
A: 99%

Q: What about the residual activity (MYLK (human)) of the same molecule?
A: 98.3%

Q: And the residual activity (CAMK2A (human))?
A: 106%

Q: And the residual activity (NLK (human))?
A: 97.6%

Q: And the residual activity (MAPKAPK2 (human))?
A: 95.4%

Q: What about the residual activity (ADRBK2 (human)) of the same molecule?
A: 87.9%

Q: What about the residual activity (RET (human)) of the same molecule?
A: 97.5%

Q: What about the residual activity (PIM3 (human)) of the same molecule?
A: 105%

Q: And the residual activity (INSRR (human))?
A: 94.2%

Q: And the residual activity (CDK1 CCNB1 (human))?
A: -1.2%

Q: And the residual activity (PAK2 (human))?
A: 95.6%

Q: What about the residual activity (SGK3 (human)) of the same molecule?
A: 92.6%

Q: What about the residual activity (ULK2 (human)) of the same molecule?
A: 86.6%

Q: And the residual activity (NUAK2 (human))?
A: 91.7%

Q: And the residual activity (CAMK4 (human))?
A: 102%

Q: What does the source list for `CN(C)C[C@H]1CCn2c(c(C3=C(c4cn(C)c5ccccc45)C(=O)NC3=O)c3ccccc32)C1`?
A: residual activity (PTK6 (human)): 90.4%; residual activity (TAOK3 (human)): 96.4%; residual activity (CSNK2A1 (human)): 98.9%; residual activity (RAF1 (human)): 96.6%; residual activity (EPHA2 (human)): 102%; residual activity (GRK4 (human)): 76.4%; residual activity (EPHA3 (human)): 99.2%; residual activity (INSR (human)): 88%; residual activity (TTK (human)): 105%; residual activity (HIPK1 (human)): 101%; residual activity (MARK2 (human)): 94.9%; residual activity (PRKCG (human)): 6.93%; residual activity (MAPK1 (human)): 101%; residual activity (PAK4 (human)): 104%; residual activity (FGFR2 (human)): 104%; residual activity (PAK1 (human)): 99.8%; residual activity (SRPK2 (human)): 91.5%; residual activity (ROCK1 (human)): 106%; residual activity (RPS6KA1 KD1 KD2 (human)): 5.9%; residual activity (NEK2 (human)): 106%; residual activity (MYLK2 (human)): 74.2%; residual activity (MKNK2 (human)): 85.8%; residual activity (NEK9 (human)): 97.6%; residual activity (CAMKK1 (human)): 116%; residual activity (MERTK (human)): 95.4%; residual activity (STK17A (human)): 87.6%; residual activity (EPHA8 (human)): 102%; residual activity (DYRK3 (human)): 102%; residual activity (MYLK (human)): 84%; residual activity (CAMK2A (human)): 100%; residual activity (NLK (human)): 101%; residual activity (MAPKAPK2 (human)): 102%; residual activity (ADRBK2 (human)): 102%; residual activity (RET (human)): 99.7%; residual activity (PIM3 (human)): 83.1%; residual activity (INSRR (human)): 98.7%; residual activity (CDK1 CCNB1 (human)): 53.7%; residual activity (PAK2 (human)): 85.1%; residual activity (SGK3 (human)): 95%; residual activity (ULK2 (human)): 105%; residual activity (NUAK2 (human)): 121%; residual activity (CAMK4 (human)): 95.5%
